Each molecule was assayed against T1, human GPR17 receptor (Homo sapiens, UniProt Q13304) (assay: Calcium mobilization functional assay (Fluo-8, FLIPR TETRA) in HEK-293 hGPR17 (Gα-q assay)). Conditions: antagonism of MDL29,951 (~EC80) induced Ca2+ signal; cell line (HEK-293 hGPR17 or HEK-293 Suchi5 hGPR17) not given.
T1 construct: host or cells: HEK-293
T1 sequence (Q13304 whole entry): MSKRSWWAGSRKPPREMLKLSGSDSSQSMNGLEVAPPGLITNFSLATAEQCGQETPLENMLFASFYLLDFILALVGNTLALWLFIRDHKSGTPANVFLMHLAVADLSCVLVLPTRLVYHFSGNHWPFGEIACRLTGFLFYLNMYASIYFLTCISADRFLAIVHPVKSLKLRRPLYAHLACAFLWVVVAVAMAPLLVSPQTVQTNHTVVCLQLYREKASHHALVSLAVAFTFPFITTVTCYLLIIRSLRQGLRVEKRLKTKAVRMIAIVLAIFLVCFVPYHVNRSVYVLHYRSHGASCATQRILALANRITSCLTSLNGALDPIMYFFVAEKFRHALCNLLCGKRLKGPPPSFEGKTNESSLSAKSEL
Assay type: cell-based
Experimental: HEK-293 cells stably expressing the human GPR17 receptor (HEK-293 hGPR17) developed by Axxam (Bresso, Milan, Italy) were cultured at 37° C. in a humidified atmosphere of 5% CO2. Cells were grown in EMEM supplemented with FBS (10%), Penicillin/Streptomycin (1%), Ultraglutamine I (2 mM), puromycin (0.6 μg/mL), G418 (0.4 mg/mL), zeocin (50 μg/mL). This cell line was used to test the compound antagonistic activity by monitoring the Gα-q based signaling. Signaling via Gα-q leads to mobilization of calcium from internal stores. Elevated intracellular calcium levels can then be measured with calcium-sensitive fluorescent dyes (e.g., Fluo 8-No Wash Dye).
GPR17 activation leads to both an increase in intracellular calcium (via Gα-q) and a decrease in cAMP levels (via Gα-i), implicating that both of these pathways play a role for in vivo function.
Experiments were performed using the below cell lines, as described in part 1: • HEK-293 hGPR17 (used to study the compounds acting via Gα-q pathway) • HEK-293 Suchi5 hGPR17 (used to study the compounds acting via Gα-i pathway, where the Gα-i signaling is switched to a Gα-q signaling thanks to the Gα-i/q chimera Suchi5)
GPR17 activation was able to induce an endoplasmic reticulum calcium (Ca^2+) store release in cytosol which could be measured using the fluorescent Ca^2+ sensitive dye Fluo-8 No Wash Dye as readout.
HEK-293 hGPR17 and HEK-293 Suchi5 hGPR17 were seeded at a density of 15,000 cells/well into poly-D-lysine coated black 384-well plates with clear bottom in complete medium. Cells were incubated overnight at 37° C. in a humidified atmosphere of 5% CO2. Twenty-four hours after seeding, the culture medium was carefully removed manually and the cells were loaded for 60 minutes at room temperature with the Ca^2+ sensitive Fluo-8 No Wash Dye, according to manufacturer's instructions. Cells were then assayed using a fluorometric imaging plate reader (FLIPR^TETRA). Fluorescence (excitation: 470-495 nm; emission: 515-575 nm) was recorded during the experiment. […] After twenty minutes, a second injection of MDL29,951 at ˜EC80 (500 nM for HEK-293 hGPR17 and 2 nM for HEK-293 Suchi5 hGPR17) in assay buffer was performed at the FLIPR^TETRA and the signal of the emitted fluorescence was recorded for additional 2 minutes. All the compound injections and incubations were performed in duplicate. For data quality and data analysis the Screener® 16.0.6 (Genedata) software was used.
`N#Cc1ccc(NS(=O)(=O)c2c[nH]c(-c3ccc(Cl)cc3Cl)c2)c(F)c1` [Cpd 261, N-(4-cyano-2-fluoro-phenyl)-5-(2,4-dichlorophenyl)-1H-pyrrole-3-sulfonamide] gave an IC50 of 500 to 5000 nM.
In the case of `N#Cc1ccc(NS(=O)(=O)c2c[nH]c(-c3cccc(CO)c3F)c2)c(F)c1` [Cpd 107, N-(4-cyano-2-fluoro-phenyl)-5-[2-fluoro-3-(hydroxymethyl)phenyl]-1H-pyrrole-3-sulfonamide], the IC50 is reported as 500 to 5000 nM.
Work on `N#Cc1cc(F)c(NS(=O)(=O)c2c[nH]c(-c3ccc(F)cc3)c2)cc1Cl` [Cpd 524, N-(5-chloro-4-cyano-2-fluorophenyl)-5-(4-fluorophenyl)-1H-pyrrole-3-sulfonamide] yielded an IC50 of 500 to 5000 nM.
`Cn1cncc1-c1cc(S(=O)(=O)Nc2cc(F)c(C(F)(F)F)cc2F)c[nH]1` [Cpd 277, N-[2,5-difluoro-4-(trifluoromethyl)phenyl]-5-(3-methylimidazol-4-yl)-1H-pyrrole-3-sulfonamide] was tested, and the IC50 was 500 to 5000 nM.
Molecule `Cc1cc(NS(=O)(=O)c2c[nH]c(-c3ccccc3)c2)ccc1C#N` [Cpd 031, N-(4-cyano-3-methyl-phenyl)-5-phenyl-1H-pyrrole-3-sulfonamide] has an IC50 of 500 to 5000 nM.
`N#Cc1ccc(NS(=O)(=O)c2c[nH]cc2Cc2ccccc2Cl)c(F)c1` [Cpd 194, 4-[(2-chlorophenyl)methyl]-N-(4-cyano-2-fluoro-phenyl)-1H-pyrrole-3-sulfonamide] gave an IC50 of 500 to 5000 nM.
Molecule `Cc1cccc(-c2c[nH]cc2S(=O)(=O)Nc2ccc(C#N)cc2F)c1` [Cpd 221, N-(4-cyano-2-fluoro-phenyl)-4-(m-tolyl)-1H-pyrrole-3-sulfonamide] has an IC50 of 500 to 5000 nM.
In the case of `N#Cc1ccc(NS(=O)(=O)c2c[nH]cc2C(O)c2ccccc2)c(F)c1` (centres unmarked) [Cpd 207, N-(4-cyano-2-fluoro-phenyl)-4-[hydroxy(phenyl)methyl]-1H-pyrrole-3-sulfonamide], the IC50 is reported as 5000 to 50000 nM.
Molecule `N#Cc1ccc(NS(=O)(=O)c2c[nH]cc2Cc2cccnc2)c(F)c1` [Cpd 184, N-(4-cyano-2-fluoro-phenyl)-4-(3-pyridylmethyl)-1H-pyrrole-3-sulfonamide] has an IC50 of 500 to 5000 nM.
With `N#Cc1cc(F)c(NS(=O)(=O)c2c[nH]c(-c3ccccc3OC(F)(F)F)c2)cc1F` [Cpd 588, N-(4-cyano-2,5-difluorophenyl)-5-[2-(trifluoromethoxy)phenyl]-1H-pyrrole-3-sulfonamide] the IC50 was < 500 nM.
In the case of `O=S(=O)(Nc1cc(F)c(OCC(F)F)cc1F)c1c[nH]c(-c2ccccc2)c1` [Cpd 463, N-[4-(2,2-difluoroethoxy)-2,5-difluorophenyl]-5-phenyl-1H-pyrrole-3-sulfonamide], the IC50 is reported as 500 to 5000 nM.
Work on `COc1ccccc1-c1cc(S(=O)(=O)Nc2cc(F)c(Br)cc2F)c[nH]1` [Cpd 532, N-(4-bromo-2,5-difluorophenyl)-5-(2-methoxyphenyl)-1H-pyrrole-3-sulfonamide] yielded an IC50 of 500 to 5000 nM.
`N#Cc1ccc(NS(=O)(=O)c2c[nH]c(-c3ccc(Cl)cc3)c2)c(F)c1` [Cpd 011, 5-(4-chlorophenyl)-N-(4-cyano-2-fluoro-phenyl)-1H-pyrrole-3-sulfonamide] gave an IC50 of 500 to 5000 nM.
In the case of `COc1nccc(F)c1-c1cc(S(=O)(=O)Nc2cc(F)c(C(F)(F)F)cc2F)c[nH]1` [Cpd 224, N-[2,5-difluoro-4-(trifluoromethyl)phenyl]-5-(4-fluoro-2-methoxy-3-pyridyl)-1H-pyrrole-3-sulfonamide], the IC50 is reported as < 500 nM.
`COc1ccc(-c2cc(S(=O)(=O)Nc3cc(F)c(C(F)(F)F)cc3F)c[nH]2)c(F)c1` [Cpd 324, N-[2,5-difluoro-4-(trifluoromethyl)phenyl]-5-(2-fluoro-4-methoxy-phenyl)-1H-pyrrole-3-sulfonamide] was tested, and the IC50 was 5000 to 50000 nM.
`N#Cc1ccc(NS(=O)(=O)c2c[nH]c(-c3cc(F)cc(F)c3F)c2)c(F)c1` [Cpd 097, N-(4-cyano-2-fluoro-phenyl)-5-(2,3,5-trifluorophenyl)-1H-pyrrole-3-sulfonamide] was tested, and the IC50 was 500 to 5000 nM.
`O=S(=O)(Nc1nc(F)c(OCCF)cc1F)c1c[nH]cc1Cc1ccccc1` [Cpd 501, 4-benzyl-N-[3,6-difluoro-5-(2-fluoroethoxy)pyridin-2-yl]-1H-pyrrole-3-sulfonamide] was tested, and the IC50 was 500 to 5000 nM.
`N#Cc1ccc(NS(=O)(=O)c2c[nH]c(-c3cccc(Cl)c3)c2)c(F)c1` [Cpd 006, 5-(3-chlorophenyl)-N-(4-cyano-2-fluoro-phenyl)-1H-pyrrole-3-sulfonamide] was tested, and the IC50 was < 500 nM.
`N#Cc1ccc(NS(=O)(=O)c2c[nH]c(C3CC3)c2)c(F)c1` [Cpd 236, N-(4-cyano-2-fluoro-phenyl)-5-cyclopropyl-1H-pyrrole-3-sulfonamide] showed an IC50 of 5000 to 50000 nM.
`N#Cc1cc(F)c(NS(=O)(=O)c2c[nH]c(-c3ccc(F)cc3F)c2)cc1F` [Cpd 510, N-(4-cyano-2,5-difluorophenyl)-5-(2,4-difluorophenyl)-1H-pyrrole-3-sulfonamide] was tested, and the IC50 was < 500 nM.
With `COc1c(F)cccc1-c1cc(S(=O)(=O)Nc2cc(F)c(Br)cc2F)c[nH]1` [Cpd 544, N-(4-bromo-2,5-difluorophenyl)-5-(3-fluoro-2-methoxyphenyl)-1H-pyrrole-3-sulfonamide] the IC50 was < 500 nM.
`O=S(=O)(Nc1cc(F)c(OC(F)F)cc1F)c1c[nH]c(-c2cccs2)c1` [Cpd 475, N-[4-(difluoromethoxy)-2,5-difluorophenyl]-5-thiophen-2-yl-1H-pyrrole-3-sulfonamide] was tested, and the IC50 was < 500 nM.
In the case of `N#Cc1ccc(NS(=O)(=O)c2c[nH]cc2-c2cccc(F)c2)c(F)c1` [Cpd 230, N-(4-cyano-2-fluoro-phenyl)-4-(3-fluorophenyl)-1H-pyrrole-3-sulfonamide], the IC50 is reported as < 500 nM.
With `CSc1cccc(Cc2c[nH]cc2S(=O)(=O)Nc2ccc(C#N)cc2F)c1` [Cpd 367, N-(4-cyano-2-fluoro-phenyl)-4-[(3-methylsulfanylphenyl)methyl]-1H-pyrrole-3-sulfonamide] the IC50 was < 500 nM.
`Cc1cccc(F)c1-c1cc(S(=O)(=O)Nc2ccc(C#N)cc2F)c[nH]1` [Cpd 082, N-(4-cyano-2-fluoro-phenyl)-5-(2-fluoro-6-methyl-phenyl)-1H-pyrrole-3-sulfonamide] was tested, and the IC50 was < 500 nM.
`COc1cccnc1-c1cc(S(=O)(=O)Nc2cc(F)c(C(F)(F)F)cc2F)c[nH]1` [Cpd 170, N-[2,5-difluoro-4-(trifluoromethyl)phenyl]-5-(3-methoxy-2-pyridyl)-1H-pyrrole-3-sulfonamide] gave an IC50 of 500 to 5000 nM.
`Cc1nc(-c2cc(S(=O)(=O)Nc3ccc(C#N)cc3F)c[nH]2)ccc1F` [Cpd 498, N-(4-cyano-2-fluorophenyl)-5-(5-fluoro-6-methylpyridin-2-yl)-1H-pyrrole-3-sulfonamide] was tested, and the IC50 was 500 to 5000 nM.
Work on `Cc1ccccc1Cc1c[nH]cc1S(=O)(=O)Nc1ccc(C#N)cc1F` [Cpd 384, N-(4-cyano-2-fluorophenyl)-4-[(2-methylphenyl)methyl]-1H-pyrrole-3-sulfonamide] yielded an IC50 of 500 to 5000 nM.
`O=S(=O)(Nc1ncc(OCC(F)F)cc1F)c1c[nH]cc1-c1cccc(F)c1` [Cpd 438, N-[5-(2,2-difluoroethoxy)-3-fluoropyridin-2-yl]-4-(3-fluorophenyl)-1H-pyrrole-3-sulfonamide] gave an IC50 of 5000 to 50000 nM.
`COc1cc(OC(F)F)cnc1NS(=O)(=O)c1c[nH]c(-c2ccccc2)c1` [Cpd 429, N-[5-(difluoromethoxy)-3-methoxypyridin-2-yl]-5-phenyl-1H-pyrrole-3-sulfonamide] showed an IC50 of 500 to 5000 nM.
For `O=S(=O)(Nc1ncc(Cl)cc1F)c1c[nH]c(-c2ccccn2)c1` [Cpd 164, N-(5-chloro-3-fluoro-2-pyridyl)-5-(2-pyridyl)-1H-pyrrole-3-sulfonamide], the IC50 was 500 to 5000 nM.
For `O=S(=O)(Nc1cc(F)c(Br)cc1F)c1c[nH]cc1Cc1cccs1` [Cpd 417, N-(4-bromo-2,5-difluorophenyl)-4-(thiophen-2-ylmethyl)-1H-pyrrole-3-sulfonamide], the IC50 was 500 to 5000 nM.
In the case of `COc1cccc(F)c1-c1cc(S(=O)(=O)Nc2ccc(C#N)cc2F)c[nH]1` [Cpd 083, N-(4-cyano-2-fluoro-phenyl)-5-(2-fluoro-6-methoxy-phenyl)-1H-pyrrole-3-sulfonamide], the IC50 is reported as < 500 nM.
`COc1cc(C#N)c(F)cc1NS(=O)(=O)c1c[nH]c(-c2ccccc2)c1` [Cpd 063, N-(4-cyano-5-fluoro-2-methoxyphenyl)-5-phenyl-1H-pyrrole-3-sulfonamide] was tested, and the IC50 was < 500 nM.
With `N#Cc1ccc(NS(=O)(=O)c2c[nH]c(-c3ccccc3)c2)c(Cl)c1` [Cpd 036, N-(2-chloro-4-cyano-phenyl)-5-phenyl-1H-pyrrole-3-sulfonamide] the IC50 was 500 to 5000 nM.

— US20240299385A1 (ReWind Therapeutics NV, priority 2021, published 2024)
